Measurements from patent publication US20230002736A1, “ENDODERM DIFFERENTIATION FROM PLURIPOTENT STEM CELL LINES” (priority 2019, published 2023).
“Also recorded” adds a separate entry of the source. Read-outs that look alike come from different tables or passages of the source.

Columns and labels:
[1] = test system: iPSC lines; assay type: cell-based; details: for ability to enhance survival of cells during induction to endoderm, other antibiotic classes compared to doxycycline: FIGS. 2B and 9B; for effect of adding Y-27632 to the protocol including doxycycline: cell lines still difficult to induce
Method: (§1) Induction of Definitive Endoderm (days 1-7). iPSCs were plated on 6-, 12-, or 96-well Matrigel-coated plates at different densities for differentiation in iPSC media containing 10 μM Y-27632 and 2 μM doxycycline. For example, typical plating density in a single well of a 6-well plate was 500,000 cells or 20,000 cells per well for 96-well plates. The differentiation process consisted of one week of RPMI media supplemented with Gem21 NeuroPlex without insulin at 1× (supplied at 50×, Gemini Bio-Products West Sacramento, Calif., catalog #400-962, or supplemented with Gibco B27 without insulin at 1×), Glutagro at 1× (Corning, Manassas, Va., catalog #25-015-CI, non-essential amino acids at 1× (Gibco, catalog #11-140-050), sodium butyrate (0.5 mM, Sigma Aldrich, catalog #B5887) and recombinant human Activin A (100 ng/mL, Peprotech, Rocky Hill, N.J., catalog #120-14E) for 7 days. On day 1, 2% KnockOut Serum Replacement (KSR; Gibco Catalog #10828028), CHIR-99021 (10 ng/mL, Selleckchem catalog #S2924), PI-103 (10 ng/mL,Selleckchem catalog #S1038), recombinant human BMP4 (10 ng/mL, Peprotech catalog #120-05ET) and FGF2 (20 ng/mL, Peprotech catalog #100-18B) were added to the media. On day 2, 1% KSR, PI-103 (10 ng/mL) and BMP4 (10 ng/mL) and FGF2 (20 ng/mL) and on day 3, 0.2% KSR and PI-103 (10 ng/mL) were added to the media. Doxycycline hyclate (Acros Organics catalog #446061000) was added throughout definitive endoderm induction starting on day 0 (passage day) at various concentrations, as described herein, with a standard concentration being 2 μM. These steps can be performed at normal room oxygen at about 20% or at low oxygen between 4 and 6%.

[2] = test system: iPSC lines; assay type: cell-based; details: protocol without doxycycline
[3] = test system: iPSC line AG02261; assay: Endoderm induction compound comparison, cell number at day 7, line AG02261; assay type: cell-based, human; details: for response in compound screen, number of cells seven days after induction: cell line AG02261, FIG. 2B; for effect on endoderm induction at high concentration: AG02261, 10 μM concentration
Method: as §1, with “FIG. 2. Doxycycline Enhanced Endoderm. A: Immunofluorescence and bright-field images showing induction of iPSC line 1023-5 to definitive endoderm (DE) with Hoechst 33342 nuclear staining in blue, and antibody staining in green for OCT3/4, FOXA, HNF1p and CXCR4 with AlexaFluor 488 secondary (green) antibody. […] (scale bar=[…]); B: Compound Screen showing other antibiotics and other compounds affecting the mitochondria were compared to doxycycline. […] The number of cells is shown measured seven days after induction compared to the plating density at day 0 (n=2); C: Comparison of Tetracycline Derivatives in iPSC lines AG02261. […] The number of cells is shown measured seven days after induction compared to the plating density at day 0. […] Induction” for “Induction”

[4] = test system: iPSC line AS7192; assay: Endoderm induction compound comparison, cell number at day 7, line AS7192; assay type: cell-based, human; details: 1 μM concentration
Method: FIG. 2. Doxycycline Enhanced Endoderm. A: Immunofluorescence and bright-field images showing induction of iPSC line 1023-5 to definitive endoderm (DE) with Hoechst 33342 nuclear staining in blue, and antibody staining in green for OCT3/4, FOXA, HNF1p and CXCR4 with AlexaFluor 488 secondary (green) antibody. […] (scale bar=[…]); B: Compound Screen showing other antibiotics and other compounds affecting the mitochondria were compared to doxycycline. […] The number of cells is shown measured seven days after induction compared to the plating density at day 0 (n=2); C: Comparison of Tetracycline Derivatives in iPSC lines AG02261. […] The number of cells is shown measured seven days after induction compared to the plating density at day 0. […] FIG. 9. Comparison of Tetracycline Derivatives and Other Compounds in additional cell line. A: Induction of iPSC lines AS7192 was performed. […] The number of cells was measured seven days after induction compared to the plating density at day 0. […] Induction of Definitive Endoderm (days 1-7). iPSCs were plated on 6-, 12-, or 96-well Matrigel-coated plates at different densities for differentiation in iPSC media containing 10 μM Y-27632 and 2 μM doxycycline. For example, typical plating density in a single well of a 6-well plate was 500,000 cells or 20,000 cells per well for 96-well plates. […]

Compound: Gentamicin [Gentamycin]
- number of cells seven days after induction compared to the plating density at day 0 (compound screen) ([1]; antibiotics and mitochondria-affecting compounds compared to doxycycline, FIG. 2B): strong increasing dose response

Compound: CC1(C)S[C@@H]2[C@H](NC(=O)[C@H](N)c3ccccc3)C(=O)N2[C@H]1C(=O)O [ampicillin]
- ability to enhance survival of cells during induction to endoderm, other antibiotic classes compared to doxycycline [1]: only Gentamicin showed a similar statistically significant ability

Compound: Cc1c[nH]c(-c2cnc(NCCNc3ccc(C#N)cn3)nc2-c2ccc(Cl)cc2Cl)n1 [CHIR99021]
- effect on number of cells in endoderm induction ([2]; addition in the first 24 hours): improved the number of cells in multiple different cell lines

Compound: N.N.N.N.N.N.N.N.N.N.N.N.N.N.[Cl-].[Cl-].[Cl-].[Cl-].[Cl-].[Cl-].[O-2].[O-2].[Ru+3].[Ru+3].[Ru+4] [Ruthenium Red]
- response in compound screen, number of cells seven days after induction [3]: showed responses at specific doses

Compound: C[C@@H](N)[C@H]1CC[C@H](C(=O)Nc2ccncc2)CC1 [Y-27632]
- rescue of induction by Y-27632 alone ([2]; resistant lines): does not produce the same robust induction; also recorded: not able to rescue resistant lines
- effect of adding Y-27632 to the protocol including doxycycline [1]: promoted the efficient and complete differentiation of these cell lines
- effect of adding Y-27632 to the protocol including doxycycline ([1]; listed as Y27632): led to the rescue of additional stem cell lines

Compound: CN(C)[C@@H]1C(O)=C(C(N)=O)C(=O)[C@@]2(O)C(O)=C3C(=O)c4c(O)ccc(Cl)c4[C@@H](O)[C@H]3C[C@@H]12 [Demeclocycline, demeclocycline]
- ability to rescue endoderm induction compared to doxycycline [4]: to some extent

Compound: COc1ccc(C[C@H](N)C(=O)N[C@H]2[C@@H](O)[C@H](n3cnc4c(N(C)C)ncnc43)O[C@@H]2CO)cc1 [Puromycin]
- ability to enhance survival of cells during induction to endoderm, other antibiotic classes compared to doxycycline [1]: only Gentamicin showed a similar statistically significant ability

Compound: N=C(N)SCCc1ccc(OCc2ccc([N+](=O)[O-])cc2)cc1 [KB-R7943]
- response in compound screen, number of cells seven days after induction [3]: showed responses at specific doses

Compound: C=C1c2cccc(O)c2C(=O)C2=C(O)[C@]3(O)C(=O)C(C(N)=O)=C(O)[C@@H](N(C)C)[C@@H]3[C@@H](O)[C@H]12 [Methacycline, methacycline]
- effect on endoderm induction at high concentration [3]: mostly toxicity

Compound: CN(C)c1ccc(O)c2c1C[C@H]1C[C@H]3[C@H](N(C)C)C(O)=C(C(N)=O)C(=O)[C@@]3(O)C(O)=C1C2=O [Minocycline, minocycline]
- effect on endoderm induction at high concentration [3]: mostly toxicity
